The text below walks through data of patent US20230391766A1, “1-(2-(4-CYCLOPROPYL-1H-1,2,3-TRIAZOL-1-YL)ACETYL)-4-HYDROXY-N-(BENZYL)PYRROLIDIN E-2-CARBOXAMIDE DERIVATIVES AS VHL INHIBITORS FOR THE TREATMENT OF ANEMIA AND CANCER” (Genentech, Inc., priority 2020, published 2023).

Series [1] concerns the target T1, VHL (Homo sapiens, UniProt P40337).
T1 construct: expressed in transfected cells
The series is described as follows: VHL HEK-293 BRET Assay (VHL NanoBRET Target Engagement Assay). In kind it is cell-based. To be noted: for IC50: HEK 293 RT VHL-NanoLuc stable cells, 1 uM tracer, 2 hours, geometric mean where more than one measurement, read-out: VHL binding in cells (HEK293 nanoBRET); for Ratio cell permeability shift: ratio not defined. A general note: Bioluminescence resonance energy transfer reports proximity on the nanometre scale.

For another series, the target named is T2, VHL Elongin B/C complex (Homo sapiens, UniProt P40337).
T2 construct: amino acids E55-D213 of human VHL with N-terminal His6 tag; His6 (N); TEV-protease cleavage site (N); made in house; host or cells: E. coli
T2 sequence (P40337 55-213): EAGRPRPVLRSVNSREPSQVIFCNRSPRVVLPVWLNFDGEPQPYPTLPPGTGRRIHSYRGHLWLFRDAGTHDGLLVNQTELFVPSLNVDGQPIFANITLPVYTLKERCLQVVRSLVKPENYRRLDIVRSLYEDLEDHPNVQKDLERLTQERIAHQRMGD
T2 sequence (Q15370 whole entry partner, the tested form may be a part): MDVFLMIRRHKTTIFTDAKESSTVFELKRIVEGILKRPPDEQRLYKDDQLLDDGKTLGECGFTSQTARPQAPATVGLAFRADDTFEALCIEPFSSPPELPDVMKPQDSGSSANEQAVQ
T2 sequence (Q15369 17-112 partner limits assumed): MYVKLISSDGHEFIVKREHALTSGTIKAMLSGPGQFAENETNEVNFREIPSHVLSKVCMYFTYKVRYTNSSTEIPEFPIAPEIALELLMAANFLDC
The experiment in a line: Fluorescence Polarization (FP) VHL Binding Assay. As to conditions: fluorescence polarization tracer competition; geometric mean where more than one measurement.

The target of series [2] is T1, VHL. The experiment in a line: VHL nanoBRET (+ Digitonin). The series is classed as cell-based.

T1 sequence (P40337 whole entry): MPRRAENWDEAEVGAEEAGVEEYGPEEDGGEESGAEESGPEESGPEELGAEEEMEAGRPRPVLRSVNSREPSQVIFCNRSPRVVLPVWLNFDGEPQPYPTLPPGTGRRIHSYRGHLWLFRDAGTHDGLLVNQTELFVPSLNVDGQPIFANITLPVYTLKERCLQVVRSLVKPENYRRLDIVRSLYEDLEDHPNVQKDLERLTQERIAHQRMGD
Method for VHL Elongin B/C complex: The binding of test compounds to the VHL Elongin B/C complex was measured using a fluorescence polarization tracer competition assay. The VHL/Elongin B/C protein complex used in the assay was generated as follows. The coding region for amino acids E55-D213 of human VHL with N-terminal His6 tag with a TEV-protease cleavage site was co-expressed with Elongin B (residues M1-Q118) and Elongin C (Residues M17-C112) in E. coli. The VHL/Elongin B/C complex was purified using an affinity nickel column, anion exchange HiTrap QP HP column chromatography, and gel filtration using a Superdex 75 26/60 column. The purified VHL/Elongin B/C complex was dialyzed into formulation buffer: 20 mM Bis-Tris pH7.0, 150 mM NaCl, 1 mM DTT. A VHL fluorescence polarization probe consisted of a VHL ligand coupled to carboxytetramethylrhodamine (TAMRA); (2S,4R)—N-(2-(2-(3′,6′-bis(dimethylamino)-3-oxo-3H-spiro[isobenzofuran-1,9′-xanthene]-5-carboxamido)ethoxy)-4-(4-methylthiazol-5-yl)benzyl)-4-hydroxy-1-((R)-3-methyl-2-(3-methylisoxazol-5-yl)butanoyl)pyrrolidine-2-carboxamide. […] DMSO was dispensed into wells designated for “VHL control” (without compound) wells. The “Assay Buffer” consisted of 50 mM Tris pH 8.0, 120 mM NaCl, 0.005% Nonidet P-40, and 1% DMSO (v/v). Assay Buffer containing 5.28 μM VHL Elongin B/C complex was prepared and 5 μl dispensed using a BioRapTR (Beckman Coulter) into each well of the assay plate. Assay Buffer was also dispensed into “no VHL control” wells using the same method. A “pre-assay” fluorescence measurement was made using an Infinite® M1000 (Tecan) plate reader (Excitation 530 nm, Emission 574 nm, Bandwidth 10 nm). Assay Buffer containing 3.34 nM of the VHL FP probe was prepared in Assay Buffer and 5 μl dispensed into each well of the assay plate using a BioRapTR (Beckman Coulter). The final VHL/Elongin B/C protein concentration is 2.64 nM and the final probe concentration is 1.67 nM. Assay plates were briefly centrifuged and incubated for 1 hour at room temperature. “Post-assay” fluorescence polarization measurements were made as described for the “pre-assay” fluorescence measurement. Fluorescence polarization was calculated for each sample; taking into account the “pre-assay” fluorescence measurements and subtracting the fluorescence signal of the compound/VHL only (“pre-assay”) measurements from the “post-assay” fluorescence polarization measurements, for each plane of polarization. The data were analyzed using Genedata Screener software and normalized to the “no VHL control” and “VHL control” (without compound). IC50 values were calculated using a four parameter curve fit (Robust method).

One may read the EC50 as the midpoint of the concentration-response curve. Lower therefore signals higher potency in that assay. `CC(C)(C)[C@@H](C(=O)N1C[C@H](O)C[C@H]1C(=O)N[C@H](Cc1ccc(-c2ccccc2)cc1)C(N)=O)n1cc(C2CC2)nn1` [Example S3, (2S,4R)—N—((R)-3-([1,1′-biphenyl]-4-yl)-1-amino-1-oxopropan-2-yl)-1-((S)-2-(4-cyclopropyl-JH-1,2,3-triazol-1-yl)-3,3-dimethylbutanoyl)-4-hydroxypyrrolidine-2-carboxamide]: the IC50 at VHL [1] and at VHL Elongin B/C complex was 150 nM each time. In addition, on VHL [1], the “Ratio cell permeability shift” value is on record as 0.97. At VHL [2], the EC50 stood at 140 nM.
Regarding `CC(=O)NCCOCc1cn([C@H](C(=O)N2C[C@H](O)C[C@H]2C(=O)N[C@H](Cc2ccc(-c3ccccc3)cc2)C(N)=O)C(C)(C)C)nn1` [Example S14, (2S,4R)—N—((R)-3-([1,1′-biphenyl]-4-yl)-1-amino-1-oxopropan-2-yl)-1-((S)-2-(4-((2-acetamidoethoxy)methyl)-1H-1,2,3-triazol-1-yl)-3,3-dimethylbutanoyl)-4-hydroxypyrrolidine-2-carboxamide], at VHL [1], the IC50 came to 20700 nM and the “Ratio cell permeability shift” value is 264.37. Further, the IC50 at VHL Elongin B/C complex stood at 80 nM.
Turning to `Cc1ncsc1-c1ccc(CNC(=O)[C@@H]2C[C@@H](O)CN2C(=O)[C@@H](n2cc(C3CC3)nn2)C(C)(C)C)cc1` [Example S24, (2S,4R)-1-((S)-2-(4-cyclopropyl-1H-1,2,3-triazol-1-yl)-3,3-dimethylbutanoyl)-4-hydroxy-N-(4-(4-methylthiazol-5-yl)benzyl)pyrrolidine-2-carboxamide], at VHL [1], the IC50 came to 10 nM and the “Ratio cell permeability shift” value is 1.22. This compound also returned an IC50 on VHL Elongin B/C complex of 10 nM. The same compound displayed an EC50 at VHL [2] of 10 nM.
For `Cc1ncsc1-c1ccc(CNC(=O)[C@@H]2C[C@@H](O)CN2C(=O)[C@@H](n2cc(Cc3ccccc3)nn2)C(C)(C)C)cc1` [Example S27, (2S,4R)-1-((S)-2-(4-benzyl-1H-1,2,3-triazol-1-yl)-3,3-dimethylbutanoyl)-4-hydroxy-N-(4-(4-methylthiazol-5-yl)benzyl)pyrrolidine-2-carboxamide], on VHL [1], the IC50 is 20 nM and the “Ratio cell permeability shift” value is recorded as 0.88. This compound also displayed an IC50 at VHL Elongin B/C complex of 20 nM. At VHL [2], this compound came in with an EC50 of 20 nM.
